Here are results for one molecule from paper PMC11503657 (Chemical Science, 2024).

Test [1] deals with CuZnAβ1–16 (Homo sapiens, UniProt P05067). In kind it is biochemical. The settings on record: pH 7.4.
Test [2] addresses CuAβ1–16 complex (Homo sapiens, UniProt P05067). In kind it is biochemical. As to conditions: pH 7.4.

SMILES strings stand for the structures.

With `O=C(O)CN(CCN(CC(=O)O)CC(=O)O)CC(=O)O` [EDTA, 2,2′,2′′,2′′′-(ethane-1,2-diyldinitrilo)tetraacetic acid], in test [1], the “ROS production: % of Asc consumption in 30 min” value is on record as 100% and the “ROS production: % of ROS arrest” value is 0%. Also, in test [2], the “ROS production: % of Asc consumption in 30 min” value was 11.3% and the “ROS production: % of ROS arrest” value is recorded as 88.7%.
